Results: patent US10047104B2, “Bicyclic heterocyclyl derivatives as IRAK4 inhibitors” (Aurigene Discovery Technologies Limited, priority 2014, dated 2018)
Structures can show the parent of a compound that is named as a salt.

Molecular target: T1, recombinant IRAK-4 kinase (Homo sapiens, UniProt Q9NWZ3)
T1 construct: purchased Millipore, USA
T1 sequence (Q9NWZ3 1-460): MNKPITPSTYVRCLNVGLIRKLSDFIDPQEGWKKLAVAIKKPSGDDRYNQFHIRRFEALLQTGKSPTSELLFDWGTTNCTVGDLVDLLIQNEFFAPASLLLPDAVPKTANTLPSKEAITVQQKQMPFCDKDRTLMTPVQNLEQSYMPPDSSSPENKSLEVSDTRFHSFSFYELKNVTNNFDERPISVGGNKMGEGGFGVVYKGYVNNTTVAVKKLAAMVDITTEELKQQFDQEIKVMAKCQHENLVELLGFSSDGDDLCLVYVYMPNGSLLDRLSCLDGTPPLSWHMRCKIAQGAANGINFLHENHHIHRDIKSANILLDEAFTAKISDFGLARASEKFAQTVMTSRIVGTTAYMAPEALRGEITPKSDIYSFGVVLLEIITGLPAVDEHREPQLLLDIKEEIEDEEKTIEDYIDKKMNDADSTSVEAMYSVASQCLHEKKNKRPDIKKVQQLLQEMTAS
Assay: IRAK-4 Biochemical Assay (TR-FRET)
Details: 5 ng IRAK-4 kinase, 100 nM Biotin Histone H3, 20 μM ATP, 30 minutes pre-incubation, read-out: IC50 values for IRAK4 activity
Description: Compounds were tested for their potential to inhibit IRAK-4 enzyme in a TR-FRET assay using recombinant IRAK-4 kinase from Millipore, USA. The assay buffer was 50 mM Tris-HCl pH 7.5, 20 mM MgCl2, 1 mM EGTA, 2 mM DTT, 3 mM MnCl2 and 0.01% Tween20. 5 ng of IRAK-4 kinase was used for the assay. After pre-incubation of enzyme with test compound for 30 minutes at room temperature, a substrate mix containing 100 nM Biotin Histone H3 (Millipore, USA) and 20 μM ATP (Sigma, USA) was added and the reaction was incubated for 30 minutes. Post incubation, the reaction was stopped by the addition of stop mix containing 40 mM EDTA, 1 nM of Europium-Anti-Phospho-Histone H3 (Ser10) antibody (Perkin Elmer, USA) and 20 nM Sure Light Allophycocyanin-Streptavidin (Perkin Elmer, USA).

| IC50 | Compound |
| --- | --- |
| > 100 nM | O=C(Nc1cc2oc(N3CCCCC3)nc2nc1N1CCCCC1)c1coc(-c2cccnc2O)n1 [Example 28, N-(2,5-di(piperidin-1-yl)oxazolo[4,5-b]pyridin-6-yl)-2-(2-hydroxypyridin-3-yl)oxazole-4-carboxamide] |
| < 50 nM | O=C(Nc1cc2sc(N3CCCCC3)nc2nc1N1CCCCC1)c1cccc(-c2cn[nH]c2)n1 [Example 22, N-(2,5-di(piperidin-1-yl)thiazolo[4,5-b]pyridin-6-yl)-6-(1H-pyrazol-4-yl)picolinamide] |
| < 50 nM | Cc1cnccc1-c1nc(C(=O)Nc2cc3oc(N4CCCCC4)nc3nc2N2CCCCC2)co1 [Example 34, N-(2,5-di(piperidin-1-yl)oxazolo[4,5-b]pyridin-6-yl)-2-(3-methylpyridin-4-yl)oxazole-4-carboxamide] |
| < 50 nM | COc1ccc(-c2nc(C(=O)Nc3cc4sc(N5CCOCC5)nc4nc3N3CCC(O)C3)co2)cn1 (centres unmarked) [Example 76, N-(5-(3-hydroxypyrrolidin-1-yl)-2-morpholinothiazolo[4,5-b]pyridin-6-yl)-2-(6-methoxypyridin-3-yl)oxazole-4-carboxamide] |
| < 50 nM | Cc1cc(-c2nc(C(=O)Nc3cc4sc(N5CCCC(O)C5)nc4nc3N3CCC(N)CC3)co2)ccn1 (centres unmarked) [Example 134, N-(5-(4-aminopiperidin-1-yl)-2-(3-hydroxypiperidin-1-yl)thiazolo[4,5-b]pyridin-6-yl)-2-(2-methylpyridin-4-yl)oxazole-4-carboxamide hydrochloride] |
| < 50 nM | Cc1cc(-c2nc(C(=O)Nc3cc4sc(N5CCOCC5)nc4nc3N3CCC[C@H](O)C3)co2)ccn1 [Example 83, (S)—N-(5-(3-hydroxypiperidin-1-yl)-2-morpholinothiazolo[4,5-b]pyridin-6-yl)-2-(2-methylpyridin-4-yl)oxazole-4-carboxamide] |
| < 50 nM | Cc1ccc(-c2nc(C(=O)Nc3cc4oc(N5CCOCC5)nc4nc3N3CCCCC3)co2)cn1 [Example 35, 2-(6-methylpyridin-3-yl)-N-(2-morpholino-5-(piperidin-1-yl)oxazolo[4,5-b]pyridin-6-yl)oxazole-4-carboxamide] |
| < 50 nM | Cc1cc(-c2nc(C(=O)Nc3cc4oc(N5CCOCC5)nc4nc3N3CCC3)co2)ccn1 [Example 110, N-(5-(azetidin-1-yl)-2-morpholinooxazolo[4,5-b]pyridin-6-yl)-2-(2-methylpyridin-4-yl)oxazole-4-carboxamide] |
| < 50 nM | N[C@H]1CCN(c2cccc(C(=O)Nc3cc4sc(N5CCOCC5)nc4nc3N3CCCCC3)n2)C1 [Example 62, (S)-6-(3-aminopyrrolidin-1-yl)-N-(2-morpholino-5-(piperidin-1-yl)thiazolo[4,5-b]pyridin-6-yl)picolinamide] |
| < 50 nM | Cc1cnccc1-c1nc(C(=O)Nc2cc3oc(N4CCOCC4)nc3nc2N2CCCCC2)co1 [Example 33, 2-(3-methylpyridin-4-yl)-N-(2-morpholino-5-(piperidin-1-yl)oxazolo[4,5-b]pyridin-6-yl)oxazole-4-carboxamide] |
| < 50 nM | Cc1cc(-c2nc(C(=O)Nc3cc4sc(N5CCCCC5)nc4nc3N3CCC3)co2)ccn1 [Example 87, N-(5-(azetidin-1-yl)-2-(piperidin-1-yl)thiazolo[4,5-b]pyridin-6-yl)-2-(2-methylpyridin-4-yl)oxazole-4-carboxamide] |
| > 100 nM | COc1ccc(-c2nc(C(=O)Nc3cc4oc(N5CCOCC5)nc4nc3N3CC[C@H](O)C3)co2)cn1 [Example 103, (S)—N-(5-(3-hydroxypyrrolidin-1-yl)-2-morpholinooxazolo[4,5-b]pyridin-6-yl)-2-(6-methoxypyridin-3-yl)oxazole-4-carboxamide] |
| < 50 nM | Cc1cc(-c2nc(C(=O)Nc3cc4sc(N5CCOCC5)nc4nc3N3CC[C@@H](O)C3)co2)ccn1 [Example 85, (R)—N-(5-(3-hydroxypyrrolidin-1-yl)-2-morpholinothiazolo[4,5-b]pyridin-6-yl)-2-(2-methylpyridin-4-yl)oxazole-4-carboxamide] |
| < 50 nM | Cc1cc(-c2nc(C(=O)Nc3cc4sc(N5CCOCC5)nc4nc3N3CC[C@H](O)C3)co2)ccn1 [Example 71, (S)—N-(5-(3-hydroxypyrrolidin-1-yl)-2-morpholinothiazolo[4,5-b]pyridin-6-yl)-2-(2-methylpyridin-4-yl)oxazole-4-carboxamide] |
| > 100 nM | COc1ccc(-c2nc(C(=O)Nc3cc4oc(N5CCOCC5)nc4nc3N3CCC(O)C3)co2)cn1 (centres unmarked) [Example 106, N-(5-(3-hydroxypyrrolidin-1-yl)-2-morpholinooxazolo[4,5-b]pyridin-6-yl)-2-(6-methoxypyridin-3-yl)oxazole-4-carboxamide] |
| 50 to 100 nM | O=C(Nc1cc2sc(N3CCOCC3)nc2nc1N1CCC1)c1cccc(N2CC[C@H](O)C2)n1 [Example 79, (S)—N-(5-(azetidin-1-yl)-2-morpholinothiazolo[4,5-b]pyridin-6-yl)-6-(3-hydroxypyrrolidin-1-yl)picolinamide] |
| < 50 nM | Nc1cc(-c2nc(C(=O)Nc3cc4sc(N5CCOCC5)nc4nc3N3CCC(F)CC3)co2)ccn1 [Example 131, 2-(2-aminopyridin-4-yl)-N-(5-(4-fluoropiperidin-1-yl)-2-morpholinothiazolo[4,5-b]pyridin-6-yl)oxazole-4-carboxamide hydrochloride] |
| < 50 nM | Cc1cc(-c2nc(C(=O)Nc3cc4sc(N5CCOCC5)nc4nc3C3CC3)co2)ccn1 [Example 69, N-(5-cyclopropyl-2-morpholinothiazolo[4,5-b]pyridin-6-yl)-2-(2-methylpyridin-4-yl)oxazole-4-carboxamide] |
| 50 to 100 nM | N[C@H]1CCN(c2nc(C(=O)Nc3cc4oc(N5CCOCC5)nc4nc3N3CCCCC3)co2)C1 [Example 42, (S)-2-(3-aminopyrrolidin-1-yl)-N-(2-morpholino-5-(piperidin-1-yl)oxazolo[4,5-b]pyridin-6-yl)oxazole-4-carboxamide] |
| > 100 nM | Cc1cc(-c2ccc(C(=O)Nc3cc4oc(N5CCOCC5)nc4nc3N3CC[C@H](O)C3)o2)ccn1 [Example 107, (S)—N-(5-(3-hydroxypyrrolidin-1-yl)-2-morpholinooxazolo[4,5-b]pyridin-6-yl)-5-(2-methylpyridin-4-yl)furan-2-carboxamide] |
| < 50 nM | O=C(Nc1cc2sc(N3CCOCC3)nc2nc1N1CCCCC1)c1cccc(N2CC[C@H](O)C2)n1 [Example 63, (S)-6-(3-hydroxypyrrolidin-1-yl)-N-(2-morpholino-5-(piperidin-1-yl)thiazolo[4,5-b]pyridin-6-yl)picolinamide] |
| < 50 nM | O=C(Nc1cc2oc(N3CCOCC3)nc2nc1N1CCCCC1)c1coc(-c2cccnc2O)n1 [Example 29, 2-(2-hydroxypyridin-3-yl)-N-(2-morpholino-5-(piperidin-1-yl)oxazolo[4,5-b]pyridin-6-yl)oxazole-4-carboxamide] |
| < 50 nM | Cc1cc(-c2nc(C(=O)Nc3cc4sc(N5CCCC(O)C5)nc4nc3N3CCC(O)CC3)co2)ccn1 (centres unmarked) [Example 126, N-(2-(3-hydroxypiperidin-1-yl)-5-(4-hydroxypiperidin-1-yl)thiazolo[4,5-b]pyridin-6-yl)-2-(2-methylpyridin-4-yl)oxazole-4-carboxamide] |
| < 50 nM | O=C(Nc1cc2sc(N3CCOCC3)nc2nc1N1CCCCC1)c1coc(N2CC[C@H](O)C2)n1 [Example 70, (S)-2-(3-hydroxypyrrolidin-1-yl)-N-(2-morpholino-5-(piperidin-1-yl)thiazolo[4,5-b]pyridin-6-yl)oxazole-4-carboxamide] |
| < 50 nM | Cc1cc(-c2nc(C(=O)Nc3cc4sc(N5CCOCC5)nc4nc3N3CCCCC3)co2)ccn1 [Example 20, 2-(2-methylpyridin-4-yl)-N-(2-morpholino-5-(piperidin-1-yl)thiazolo[4,5-b]pyridin-6-yl)oxazole-4-carboxamide] |
| < 50 nM | Cc1cc(-c2nc(C(=O)Nc3cc4oc(N5CCOCC5)nc4nc3N3CCOCC3)co2)ccn1 [Example 24, N-(2,5-dimorpholinooxazolo[4,5-b]pyridin-6-yl)-2-(2-methylpyridin-4-yl)oxazole-4-carboxamide] |
| < 50 nM | Nc1ccc(-c2cccc(C(=O)Nc3cnc4nc(N5CCOCC5)sc4c3)n2)cn1 [Example 16, 6′-amino-N-(2-morpholinothiazolo[4,5-b]pyridin-6-yl)-[2,3′-bipyridine]-6-carboxamide] |
| < 50 nM | COc1ccc(-c2nc(C(=O)Nc3cc4sc(N5CCOCC5)nc4nc3N3CC[C@@H](O)C3)co2)cn1 [Example 78, (R)—N-(5-(3-hydroxypyrrolidin-1-yl)-2-morpholinothiazolo[4,5-b]pyridin-6-yl)-2-(6-methoxypyridin-3-yl)oxazole-4-carboxamide] |
| < 50 nM | O=C(Nc1cc2sc(N3CCCCC3)nc2nc1N1CCCCC1)c1cccc(N2CC[C@H](O)C2)n1 [Example 65, (S)—N-(2,5-di(piperidin-1-yl)thiazolo[4,5-b]pyridin-6-yl)-6-(3-hydroxypyrrolidin-1-yl)picolinamide] |
